We go through 7 compounds from EP4467141A1, “PYRAZOLO-QUINOLINES AS SELECTIVE INHIBITORS OF GENOTOXIC STRESS-INDUCED IKK/NF- KB PATHWAYS FOR CANCER THERAPY” (Max-Delbrück-Centrum für Molekulare Medizin in der …, priority 2023, dated 2024).

The term inhibition denotes the percentage by which the read-out fell short of the control. As usually defined, the pIC50 is the IC50 on a negative log10 scale, so that one unit is a factor of ten. Higher therefore signals a small IC50.

The target in one experiment is T1, CLK3 (Homo sapiens, UniProt P49761).
T1 construct: purchased Thermo Fisher Scientific
T1 sequence (P49761 whole entry): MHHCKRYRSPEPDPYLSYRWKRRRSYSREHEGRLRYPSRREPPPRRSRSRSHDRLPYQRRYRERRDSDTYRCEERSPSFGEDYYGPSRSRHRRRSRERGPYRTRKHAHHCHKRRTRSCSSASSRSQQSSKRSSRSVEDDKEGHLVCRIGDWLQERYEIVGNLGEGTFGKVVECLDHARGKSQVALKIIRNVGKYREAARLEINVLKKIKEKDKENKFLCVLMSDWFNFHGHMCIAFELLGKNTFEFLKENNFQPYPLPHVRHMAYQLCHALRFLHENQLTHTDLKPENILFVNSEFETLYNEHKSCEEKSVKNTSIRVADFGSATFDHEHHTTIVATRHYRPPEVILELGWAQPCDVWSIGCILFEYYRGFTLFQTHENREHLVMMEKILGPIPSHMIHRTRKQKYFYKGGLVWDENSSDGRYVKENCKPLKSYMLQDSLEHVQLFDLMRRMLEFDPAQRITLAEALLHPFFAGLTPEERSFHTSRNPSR
Description: Kinase panel study. It counts as biochemical. The settings on record: for inhibition at 10 µM: CLK3, compound at 10µM; for CLK3 inhibition: in vitro kinase assay, isoform specificity. The protocol: The Kinase panel study was entirely provided by Thermo Fisher Scientific using the two lead compounds MW01 and MW05 as well as their derivatives (MW01-E06, MW01-E10, MW01-E14, MW01-E18, MW05-E2, MW05-E3, MW05-E9 and MW05-E10. The experiment was performed using the ZLyte or Adapta protocol according to manufacturer standard operating procedures. […]

The next experiment addresses T2, CLK1 (Homo sapiens, UniProt P49759).
T2 construct: purchased Thermo Fisher Scientific
Briefly: Kinase panel study. It counts as biochemical. The protocol:
(§1) The Kinase panel study was entirely provided by Thermo Fisher Scientific using the two lead compounds MW01 and MW05 as well as their derivatives (MW01-E06, MW01-E10, MW01-E14, MW01-E18, MW05-E2, MW05-E3, MW05-E9 and MW05-E10. The experiment was performed using the ZLyte or Adapta protocol according to manufacturer standard operating procedures.
(§2) Based on their similar effects in our screen and molecular analysis, MW01 and MW05 were used in comparative target deconvolution studies seeking common targets despite their distinct structures. To eliminate previously identified kinases regulating NF-κB activity, such as IKK, as possible targets of MW01 and MW05, an in vitro kinase inhibition assay was performed. […] We next investigated if any of the shared kinase targets of MW01 and MW05 play a role in genotoxic stress-induced NF-κB activity and established several criteria to narrow down pathway-relevant targets. Considering the similar NF-κB inhibition phenotypes of both compounds, we hypothesized first that the target should be shared by both lead compounds. Second, based on the CaCo2 recovery values and experimental treatment concentration of 10 µM), the putative target kinase should have a low IC50 of, at most, 2000 nM for both lead compounds in the in vitro kinase panel (Fig. 2A). Based on these criteria alone, we arrived at a relatively short list of potential targets for further analysis, leaving only PIK3CG, PIK3C2G, and CLK2 (Fig. 2B). IC50 values for PIK3C2G by both lead compounds agreed best with these criteria, but RNA expression analysis indicates high tissue specificity as well as lack of expression of this kinase in our U2-OS model cell line, which we then eliminated from further analysis (Uhlén et al., 2015). […] Table 6: Percentage of inhibition of the indicated kinases by MW01 or MW05 at either 10 µM or 1 µM. n.d. = not determined. […]

For another experiment, the target named is T3, CLK4 (Homo sapiens, UniProt Q9HAZ1).
T3 construct: purchased Thermo Fisher Scientific
T3 sequence (Q9HAZ1 whole entry): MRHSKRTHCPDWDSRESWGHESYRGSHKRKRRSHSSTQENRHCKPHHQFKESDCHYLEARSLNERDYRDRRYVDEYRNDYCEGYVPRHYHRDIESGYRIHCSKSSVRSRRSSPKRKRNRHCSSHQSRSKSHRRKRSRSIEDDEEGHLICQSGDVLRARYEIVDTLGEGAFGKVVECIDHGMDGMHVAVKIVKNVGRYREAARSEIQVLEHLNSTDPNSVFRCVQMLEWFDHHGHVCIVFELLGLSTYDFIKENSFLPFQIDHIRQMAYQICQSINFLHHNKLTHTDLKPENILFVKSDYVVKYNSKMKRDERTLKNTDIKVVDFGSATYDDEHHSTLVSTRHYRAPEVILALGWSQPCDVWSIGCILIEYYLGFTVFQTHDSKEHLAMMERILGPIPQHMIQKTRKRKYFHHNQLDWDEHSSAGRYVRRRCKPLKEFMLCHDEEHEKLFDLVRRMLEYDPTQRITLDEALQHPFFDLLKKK
Briefly: Kinase panel study. It counts as biochemical. Here is the method: as §1, §2
(§3) To validate the structural backbones of MW01 and MW05 and leverage additional structures in discerning on- and off-target activity, we screened more than 30 structural derivatives for similar NF-κB pathway inhibition compared to our lead compounds following irradiation or TNF stimulation (Table 1 and 2). Several structural derivatives of each lead compound were identified which reduced p-p65 and NFKBIA expression in an irradiation-specific manner. (Fig 3A, B, C, Fig. 8). […] As expected for structurally similar derivatives, kinase inhibition profiles of active derivatives were similar to the respective lead compounds, validating the common structural backbones of each as kinase inhibitors. However, inhibition of several kinases was lost some derivatives of MW01 and MW05, including PI3K isoforms, adding further evidence that the NF-κB inhibition by our compounds is not mediated by inhibition of these kinases. […] Considering the phenotypic similarity between two structurally distinct lead compounds, the agreement of the derivatives with our kinase IC50 criteria, and significant results following siRNA knockdown of CLK2 and CLK4, we proceeded to further characterize our lead compounds.

In the next experiment the target is T4, CLK2 (Homo sapiens, UniProt P49760).
T4 construct: purchased Thermo Fisher Scientific
T4 sequence (P49760 whole entry): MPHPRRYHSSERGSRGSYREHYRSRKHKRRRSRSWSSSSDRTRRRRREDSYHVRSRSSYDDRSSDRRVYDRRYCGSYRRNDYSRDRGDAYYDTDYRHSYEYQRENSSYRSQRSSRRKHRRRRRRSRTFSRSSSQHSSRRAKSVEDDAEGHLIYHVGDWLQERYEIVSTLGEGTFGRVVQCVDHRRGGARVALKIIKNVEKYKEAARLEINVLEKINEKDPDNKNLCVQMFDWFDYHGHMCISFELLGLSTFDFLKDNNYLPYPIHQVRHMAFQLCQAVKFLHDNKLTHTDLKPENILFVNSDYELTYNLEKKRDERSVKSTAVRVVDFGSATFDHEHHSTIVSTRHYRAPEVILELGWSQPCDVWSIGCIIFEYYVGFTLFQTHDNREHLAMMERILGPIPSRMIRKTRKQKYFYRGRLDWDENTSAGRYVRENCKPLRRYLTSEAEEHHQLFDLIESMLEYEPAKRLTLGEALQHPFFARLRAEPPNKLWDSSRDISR
Briefly: Kinase panel study. The settings on record: for inhibition at 1 µM: 1000nM; for pIC50: in vitro kinase panel. It counts as biochemical. The protocol:
as §1, §2, §3

The test system of experiment [1] is NF-κB subunit p65 phosphorylation (S536). Description: Western blot of p65 phosphorylation (S536) after DNA damage (irradiation or etoposide) in U2-OS cells. It counts as cell-based. The settings on record: for activity in cell-based NF-κB activation assays: 10 µM, p65 phosphorylation and NFKBIA expression after irradiation; for phosphorylation of p65 at serine 536 after DNA damage: 1-hour pre-treatment, irradiation (IR, 20 Gy), 90 min. Here is the method: Fig.1: Identification of inhibitors specific for DNA damage-induced NF-κB activity. (A) Flowchart representing the high-throughput chemical library screening. A screen/counter-screen strategy was used by stimulating NF-κB in U2-OS cells with etoposide (50 µM for 90 min) and hits were counter-screened with TNFα (10 ng/ml for 20 min). Cells were pre-treated with compounds (10 µM) for 1 hour before stimulation, fixed, and percent p65 nuclear translocation measured by fluorescence microscopy. IC50 values were used for final selection. (B) Comparison of mean p65 nuclear translocation following either etoposide or TNFa stimulation after treatment with each counter-screened hit compound. Values were normalized to etoposide or TNFα positive controls. Specific inhibitors (red) of DNA damage-induced NF-κB signaling were defined by setting cut-off criteria (black line). […] (C) IC50 determination for MW01 (left) and MW05 (right) of p65 nuclear translocation, following either etoposide or TNFα treatment. […] IC50 noted with a dotted line. (D) Structures of compounds selected as leads for further analysis, MW01 (5-Hydroxy-10,11-dimethoxy-9H-benzo[c]indolo[3,2,1-ij][1,5]naphthyridin-9-one) and MW05 (3-Amino-7-methoxypyrazolo[3,4-b]quinolin-1-yl)-[3-(dimethylamino)phenyl]methanone). (E) Western blot analysis (top) and quantification (bottom) of NF-κB subunit p65 phosphorylation (S536) following 1-hour pre-treatment with DMSO, MW01 (10 µM), or MW05 (10 µM), in unstimulated, after 90 min irradiation (IR, 20 Gy), or after 20 min TNFα (10 ng/mL) conditions in U2- OS cells. B-actin was used as loading control after. The p-p65 signal was first normalized to β-actin loading control per sample, then each value to DMSO-treated unstimulated to evaluate relative activation of NF-κB. Ns: not significant; ***: p<0.001.
NF-κB was stimulated by DNA damage through either 20 Gy irradiation (IR) and analyzed after 90 minutes or by 10 ng/ml TNFα and analyzed after 20 minutes unless otherwise noted.
All compounds were pre-treated for 1-hour prior to NF-κB stimulation unless otherwise noted.
Cells were collected by scraping and lysed in Baeuerle lysis buffer supplemented with Protease (Thermo Fisher Scientific, 78429) and Phosphatase (Thermo Fisher Scientific, 78420) inhibitors after the appropriate treatment and time point. Proteins were quantified by Bradford assay (Bio-Rad, 5000006) and 20-50 µg of extracted proteins were loaded on 4-20% Protein Gel (Bio-Rad, 4568096) and then transferred onto a PVDF membrane (Bio-Rad, 1620177) using Tris-Glycine buffer with 20% of methanol. Blocking was performed for 1h with 5% not-fat dry milk in PBS 1X. Immunodetection was obtained using primary and secondary antibodies reported in Key Resources Table. The membranes were analyzed by ECL (Thermo Fisher Scientific, 34580) and detected by ChemiDoc XRS+ (Bio-Rad) using ImageLab software (Bio-Rad).

Experiment [2] shares this test system. Described as above. It counts as cell-based. The settings on record: 10 µM plus etoposide 50 µM, 24 hours.
Setting [3] is: CLK1, compound at 10µM, read-out: % of Inhibition.
[4] abbreviates: CLK4, compound at 10µM, read-out: % of Inhibition.
[5] abbreviates: CLK2, compound at 10µM, read-out: % of Inhibition.
Where [6] appears, read: 10000nM, read-out: Percentage of inhibition.
Setting [7] is: first CLK2 line of the table, read-out: Percentage of inhibition.
[8] abbreviates: second CLK2 line of the table, read-out: Percentage of inhibition.
The mark [9] stands for this setting: 10000nM, first CLK2 line of the table, read-out: Percentage of inhibition.
Where [10] appears, read: 10000nM, second CLK2 line of the table, read-out: Percentage of inhibition.

pIC50: −log10 of the molar value. “Also recorded” adds a separate entry of the source. Like-named read-outs stand apart in the source and are kept apart here.

T2 sequence (P49759 whole entry): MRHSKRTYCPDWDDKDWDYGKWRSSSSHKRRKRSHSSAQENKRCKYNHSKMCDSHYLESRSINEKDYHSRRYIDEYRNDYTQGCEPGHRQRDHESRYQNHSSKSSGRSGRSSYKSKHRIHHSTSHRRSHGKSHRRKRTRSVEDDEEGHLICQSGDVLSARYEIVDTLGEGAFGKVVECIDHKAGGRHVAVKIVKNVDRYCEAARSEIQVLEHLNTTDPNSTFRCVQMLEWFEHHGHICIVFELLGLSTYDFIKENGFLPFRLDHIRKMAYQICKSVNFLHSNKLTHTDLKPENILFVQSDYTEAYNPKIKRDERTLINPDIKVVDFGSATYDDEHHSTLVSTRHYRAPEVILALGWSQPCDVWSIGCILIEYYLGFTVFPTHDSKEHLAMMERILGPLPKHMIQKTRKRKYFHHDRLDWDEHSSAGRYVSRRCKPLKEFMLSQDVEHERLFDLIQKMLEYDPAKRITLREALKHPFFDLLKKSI

Take `O=c1c2cnccc2c2nccc3c4cc(O)ccc4n1c32` [MW01-E18, 5-hydroxy-1,11,16-triazapentacyclo[10.7.1.0^2,^7.0^8,^20.0^13,^18]icosa-2(7),3,5,8(20),9,11,13(18),14,16-nonaen-19-one]: the inhibition at 10 µM turned out to be 35% at CLK3, 61% on CLK1 (setting [3]), 98% at CLK4 (setting [4]) and 70% at CLK2 (setting [5]).
Take `COc1ccc2nc3c(cc2c1)c(N)nn3C(=O)c1cccc(N(C)C)c1` [MW05-E2, 1-[3-(dimethylamino)benzoyl]-6-methoxy-1H-pyrazolo[3,4-b]quinolin-3-amine]: in experiment [1], the “activity in cell-based NF-κB activation assays” value is “inactive; also recorded: lacking activity”. The inhibition at 10 µM against CLK3 was 5%; on CLK1 (setting [3]) it was 16%; on CLK4 (setting [4]), 75%; on CLK2 (setting [5]) it was 74%. In addition, the CLK2 inhibition result on CLK2 (in vitro kinase assay) is given as “inhibited CLK2”.
Take `COc1ccc2c(c1OC)c(=O)n1c3ccc(O)cc3c3ccnc2c31` [MW01, 5-Hydroxy-10,11-dimethoxy-9H-benzo[c]indolo[3,2,1-ij][1,5]naphthyridin-9-one]: the “phosphorylation of p65 at serine 536 after DNA damage” value in experiment [1] is on record as “significantly reduced”. The CLK3 inhibition result on CLK3 is on record as “largely spare CLK3”. In experiment [2], the “etoposide-stimulated p65 phosphorylation” value was “abrogated”. For the same compound, the inhibition at 10 µM on CLK1 (setting [6]) is 88%; on CLK4 (setting [6]) it was 91%; at CLK2 (setting [9]) it was 91%; on CLK2 (setting [10]) it was 91%. Also, the inhibition at 1 µM on CLK2 (setting [7]) and on CLK2 (setting [8]) was 78% each time. At CLK2, this compound showed a pIC50 of 6.44.
On to `COc1ccc2cc3c(N)nn(C(=O)c4cccc(N(C)C)c4)c3nc2c1` [MW05, (3-Amino-7-methoxypyrazolo[3,4-b]quinolin-1-yl)-[3-(dimethylamino)phenyl]methanone], for which, in experiment [1], the “phosphorylation of p65 at serine 536 after DNA damage” value is on record as “significantly reduced”. The CLK3 inhibition entry at CLK3 is “largely spare CLK3”. For the same compound, in experiment [2], the “etoposide-stimulated p65 phosphorylation” value was “abrogated”. The inhibition at 10 µM stood at 73% on CLK1 (setting [6]), 94% at CLK4 (setting [6]), 86% at CLK2 (setting [9]) and 72% at CLK2 (setting [10]). Further, the inhibition at 1 µM at CLK2 (setting [7]) and at CLK2 (setting [8]) was 40% throughout. Besides, the negative-log IC50 (pIC50) against CLK2 is 5.84.
Turning to `O=c1c2cc(O)ccc2c2nccc3c4cc(O)ccc4n1c32` [MW01-E10, 5,16-dihydroxy-1,11-diazapentacyclo[10.7.1.0^2,^7.0^8,^20.0^13,^18]icosa-2(7),3,5,8(20),9,11,13(18),14,16-nonaen-19-one], the inhibition at 10 µM was found to be 35% against CLK3, 69% at CLK1 (setting [3]), 99% at CLK4 (setting [4]) and 70% at CLK2 (setting [5]).
On to `COc1ccc2c(c1)c1ccnc3c4nc(OC)ccc4c(=O)n2c13` [MW01-E6, 5,15-dimethoxy-1,11,14-triazapentacyclo[10.7.1,0^2,7.0^8,^20.0^13,^18]icosa-2(7),3,5,8(20),9,11,13(18),14,16-nonaen-19-one], for which the “activity in cell-based NF-κB activation assays” value in experiment [1] was “inactive”. For the same compound, the inhibition at 10 µM worked out at 9% against CLK3, 10% at CLK1 (setting [3]), 58% on CLK4 (setting [4]) and 18% on CLK2 (setting [5]).
The corresponding values for `COc1ccc2c(c1)c1ccnc3c4ccnc(OC)c4c(=O)n2c13` [MW01-E14, 5,17-dimethoxy-1,11,16-triazapentacyclo[10.7.1.0^2,^7.0^8,^20.0^13,^18]icosa-2(7),3,5,8(20),9,11,13(18),14,16-nonaen-19-one] are “inactive”, 7%, 6%, 67% and 20%.
